Experimental data taken from article PMC4639751, “Development of 1-N-^11C-Methyl-L- and -D-Tryptophan for pharmacokinetic imaging of the immune checkpoint inhibitor 1-Methyl-Tryptophan” (Scientific Reports, 2015).

Key:
[1] = Ex vivo biodistribution studies; conditions: SD rats, mean ± SEM, n = 4
Source text: Major organs and tissues (blood, heart, lung, liver, pancreas, spleen, kidney, intestine, muscle, and brain), were promptly excised, harvested, and weighed. Radioactivity was counted using a γ-counter and expressed as a percentage of the injected dose per gram of wet tissue (%ID/g). All radioactivity measurements were corrected for decay.

[2] = parameters: method as in PMID 17234791; conditions: compared with the other isomer; cited from earlier work
[3] = PET, rats, 60 min after injection
Method: Emission scans were acquired in three-dimensional list mode with an energy window of 350–650 keV under isoflurane anesthesia, from 0 to 60 min after radioprobe administration. All list-mode acquisition data were sorted into three-dimensional sinograms, which were then Fourier-rebinned into two-dimensional sonograms (frames × min: 4 × 1, 8 × 2, 8 × 5), and corrections for scanner dead time, randoms, and decay of the injected radioprobe. Dynamic images were reconstructed with filtered back-projection using a Hanning filter and a Nyquist cut-off of 0.5 cycles/pixel. Immediately after completion of PET scans, contrast-enhanced CT scans were performed in the rats by using the small-animal CT system (R_mCT2; Rigaku, Tokyo) after injection of 1 mL of non-ionic contrast medium (Iopamiron 370, Bayer, Osaka). The scan conditions included radiation parameters of 200 μA and 90 kV, FOV of 60 mm, and acquisition time of 34 s. CT images were collected, reconstructed, and observed using I-View-R software (Rigaku, The Woodlands, TX). Averaged CT attenuation images and dynamic PET images were reconstructed and fused using the Siemens Inveon Research Workplace (IRW) 4.0 software.
Regions of interest (ROI) in major organs and tissues were drawn in the PET/CT fusion images by manual outlining the organs and tissues in the CT images throughout the image slices by using IRW 4.0 software. The average radioactivity concentration was obtained from mean pixel values in the ROI volume. Regional uptake of radioactivity was decay-corrected to the injection time and expressed as the standardized uptake value (SUV), normalized for injected radioactivity and body weight. SUV was calculated as SUV = (radioactivity per cubic centimeter tissue/injected radioactivity) × body weight in grams. TACs of the radioprobes in individual organ and tissue were determined. Values of area under time-activity curves (AUC2–60 min, SUV × min) were calculated from 2 to 60 min post-injection to minimize the early perfusion effects.

[4] = In vitro stability assay in rat plasma; type: in vitro ADME; conditions: 37 °C, 90 min incubation, HPLC analysis
Method: To determine the in vitro property of the two newly-developed radioprobes, we performed plasma stability studies by HPLC analysis at 37 °C for 90 min. […] More than 95% of ^11C-L-1Mtrp and ^11C-D-1Mtrp remained intact and no detectable metabolites were found at least 90 min after plasma incubation in vitro.
^11C-L-1MTrp and ^11C-D-1MTrp (70–74 MBq, 0.4−0.6 nmol) was dissolved in 2 mL of freshly isolated rat plasma and incubated at 37 °C for 90 min. After 0, 30, 60 and 90 min, an aliquot of 300 μL incubated mixture was taken, proteins in plasma were precipitated with equal volumes of 1 M HClO4 solution, followed by centrifugation at 15000 rpm for 2 min at 4 °C. The supernatant was collected and analyzed by HPLC (Capcell Pack UG80 column, 4.6 mm i.d. × 250 mm) with […] phosphate buffer/CH3CN (8.5/1.5, v/v) at a flow rate of 1 mL/min.

[5] = Ex vivo metabolite studies; type: in vivo; conditions: SD rats; for Ex vivo metabolite analysis, % of tailored L- and D-1MTrp entity in Brain / Ex vivo metabolite analysis, % of tailored L- and D-1MTrp entity in Pancreas / Ex vivo metabolite analysis, % of tailored L- and D-1MTrp entity in Plasma: HPLC, mean ± SEM, n = 4
Method: To validate the derivation of radioactivity into the relevant organs and tissues, we assessed the metabolites of both radiolabelled isomers in the blood, brain, and pancreas of rats. […] Few radioactive metabolites were detected in these three tissues at 15 and 60 min after ^11C-L-1MTrp and ^11C-D-1MTrp injection.
SD rats were injected with ^11C-L-1MTrp or ^11C-D-1MTrp (70–74 MBq, 0.4–0.6 nmol) via a lateral tail vein. The animals were sacrificed by cervical dislocation at 15 and 60 min after the injection. Blood was collected and centrifuged at 15000 rpm for 2 min at 4 °C to separate the plasma. Brain and pancreas were rapidly removed, then homogenized in equal volumes of 1 M HClO4 solution with a Silent Crusher S homogenizer (Heidolph Instruments). Plasma and homogenates of brain and pancreas from rats were deproteinized and then analyzed by HPLC as described in the stability assay in vitro.

Compound: Cn1cc(C[C@@H](N)C(=O)O)c2ccccc21 [D-1MTrp, 1-Methyl-D-tryptophan, reference compound]
- Biodistribution, radioactivity in Kidney ([1]; 60 min after injection): 1.16 %ID/g tissue
- Antitumor activity in in vivo studies [2]: superior antitumor activity
- SUV in the kidney ([3]; mean ± SEM, four rats): 1.79

Compound: [11CH3]n1cc(C[C@H](N)C(=O)O)c2ccccc21 [^11C-L-1MTrp, 1-N-^11C-methyl-L-tryptophan]
- Biodistribution, radioactivity in Blood ([1]; 1 min after injection): 1.34 ± 0.03 %ID/g tissue
- Biodistribution, radioactivity in Brain ([1]; 1 min after injection): 0.14 ± 0.00 %ID/g tissue
- Biodistribution, radioactivity in Heart ([1]; 1 min after injection): 1.13 ± 0.01 %ID/g tissue
- Biodistribution, radioactivity in Intestine ([1]; 1 min after injection): 1.27 ± 0.05 %ID/g tissue
- Biodistribution, radioactivity in Kidney ([1]; 1 min after injection): 2.60 ± 0.02 %ID/g tissue
- Biodistribution, radioactivity in Liver ([1]; 1 min after injection): 1.51 ± 0.03 %ID/g tissue
- Biodistribution, radioactivity in Lung ([1]; 1 min after injection): 0.98 ± 0.02 %ID/g tissue
- Biodistribution, radioactivity in Muscle ([1]; 1 min after injection): 0.18 ± 0.02 %ID/g tissue
- Biodistribution, radioactivity in Pancreas ([1]; 1 min after injection): 2.95 ± 0.23 %ID/g tissue
- Biodistribution, radioactivity in Spleen ([1]; 1 min after injection): 0.98 ± 0.05 %ID/g tissue
- Biodistribution, radioactivity in Blood ([1]; 5 min after injection): 0.65 ± 0.01 %ID/g tissue
- Biodistribution, radioactivity in Brain ([1]; 5 min after injection): 0.20 ± 0.01 %ID/g tissue
- Biodistribution, radioactivity in Heart ([1]; 5 min after injection): 0.64 ± 0.01 %ID/g tissue
- Biodistribution, radioactivity in Intestine ([1]; 5 min after injection): 0.68 ± 0.01 %ID/g tissue
- Biodistribution, radioactivity in Kidney ([1]; 5 min after injection): 1.64 ± 0.03 %ID/g tissue
- Biodistribution, radioactivity in Liver ([1]; 5 min after injection): 0.73 ± 0.01 %ID/g tissue
- Biodistribution, radioactivity in Lung ([1]; 5 min after injection): 0.62 ± 0.01 %ID/g tissue
- Biodistribution, radioactivity in Muscle ([1]; 5 min after injection): 0.46 ± 0.01 %ID/g tissue
- Biodistribution, radioactivity in Spleen ([1]; 5 min after injection): 0.61 ± 0.00 %ID/g tissue
- Biodistribution, radioactivity in Blood ([1]; 15 min after injection): 0.54 ± 0.02 %ID/g tissue
- Biodistribution, radioactivity in Brain ([1]; 15 min after injection): 0.27 ± 0.02 %ID/g tissue
- Biodistribution, radioactivity in Heart ([1]; 15 min after injection): 0.54 ± 0.02 %ID/g tissue
- Biodistribution, radioactivity in Intestine ([1]; 15 min after injection): 0.53 ± 0.02 %ID/g tissue
- Biodistribution, radioactivity in Kidney ([1]; 15 min after injection): 1.11 ± 0.06 %ID/g tissue
- Biodistribution, radioactivity in Liver ([1]; 15 min after injection): 0.61 ± 0.03 %ID/g tissue
- Biodistribution, radioactivity in Lung ([1]; 15 min after injection): 0.50 ± 0.02 %ID/g tissue
- Biodistribution, radioactivity in Muscle ([1]; 15 min after injection): 0.46 ± 0.02 %ID/g tissue
- Biodistribution, radioactivity in Pancreas ([1]; 15 min after injection): 2.65 ± 0.16 %ID/g tissue
- Biodistribution, radioactivity in Spleen ([1]; 15 min after injection): 0.55 ± 0.02 %ID/g tissue
- Biodistribution, radioactivity in Blood ([1]; 30 min after injection): 0.50 ± 0.01 %ID/g tissue
- Biodistribution, radioactivity in Brain ([1]; 30 min after injection): 0.30 ± 0.02 %ID/g tissue
- Biodistribution, radioactivity in Heart ([1]; 30 min after injection): 0.49 ± 0.01 %ID/g tissue
- Biodistribution, radioactivity in Intestine ([1]; 30 min after injection): 0.51 ± 0.00 %ID/g tissue
- Biodistribution, radioactivity in Kidney ([1]; 30 min after injection): 0.86 ± 0.03 %ID/g tissue
- Biodistribution, radioactivity in Liver ([1]; 30 min after injection): 0.55 ± 0.01 %ID/g tissue
- Biodistribution, radioactivity in Lung ([1]; 30 min after injection): 0.45 ± 0.01 %ID/g tissue
- Biodistribution, radioactivity in Muscle ([1]; 30 min after injection): 0.45 ± 0.01 %ID/g tissue
- Biodistribution, radioactivity in Pancreas ([1]; 30 min after injection): 2.70 ± 0.17 %ID/g tissue
- Biodistribution, radioactivity in Spleen ([1]; 30 min after injection): 0.51 ± 0.01 %ID/g tissue
- Biodistribution, radioactivity in Blood ([1]; 60 min after injection): 0.50 ± 0.02 %ID/g tissue
- Biodistribution, radioactivity in Brain ([1]; 60 min after injection): 0.31 ± 0.01 %ID/g tissue
- Biodistribution, radioactivity in Heart ([1]; 60 min after injection): 0.47 ± 0.02 %ID/g tissue
- Biodistribution, radioactivity in Intestine ([1]; 60 min after injection): 0.46 ± 0.02 %ID/g tissue
- Biodistribution, radioactivity in Kidney ([1]; 60 min after injection): 0.74 ± 0.04 %ID/g tissue
- Biodistribution, radioactivity in Liver ([1]; 60 min after injection): 0.54 ± 0.02 %ID/g tissue
- Biodistribution, radioactivity in Lung ([1]; 60 min after injection): 0.43 ± 0.02 %ID/g tissue
- Biodistribution, radioactivity in Muscle ([1]; 60 min after injection): 0.45 ± 0.02 %ID/g tissue
- Biodistribution, radioactivity in Pancreas ([1]; 60 min after injection): 2.27 ± 0.05 %ID/g tissue
- Biodistribution, radioactivity in Spleen ([1]; 60 min after injection): 0.48 ± 0.01 %ID/g tissue
- Fraction remaining intact in rat plasma [4]: More than 95%
- Radioactivity in the brain, pancreas, and blood associated with L- and D-1MTrp ([5]; 15 and 60 min after injection): more than 94%
- Ex vivo metabolite analysis, % of tailored L- and D-1MTrp entity in Brain ([5]; 15 min after injection): 98.38 ± 0.34%
- Ex vivo metabolite analysis, % of tailored L- and D-1MTrp entity in Pancreas ([5]; 15 min after injection): 94.73 ± 1.64%
- Ex vivo metabolite analysis, % of tailored L- and D-1MTrp entity in Plasma ([5]; 15 min after injection): 97.67 ± 0.18%
- Ex vivo metabolite analysis, % of tailored L- and D-1MTrp entity in Brain ([5]; 60 min after injection): 98.93 ± 0.51%
- Ex vivo metabolite analysis, % of tailored L- and D-1MTrp entity in Pancreas ([5]; 60 min after injection): 95.88 ± 0.64%
- Ex vivo metabolite analysis, % of tailored L- and D-1MTrp entity in Plasma ([5]; 60 min after injection): 98.44 ± 0.13%
- SUV in the kidney ([3]; mean ± SEM, four rats): 0.94 ± 0.03
- SUV in the pancreas ([3]; mean ± SEM, four rats): 2.28 ± 0.28
- SUV in the liver, spleen, heart, blood, muscle, lung, brain and intestine ([3]; span over these organs): 0.43 ~ 0.70
